Test results taken from paper PMC10349078, “Sequence-based drug design as a concept in computational drug design” (Nature Communications, 2023).
Values belong to the molecule of their own block, whether it stands above or below them.

What was measured:
[1] = biological target: T1, ARF1^WT (Δ17ARF1) (Homo sapiens, UniProt P84077); assay: protein thermal shift (SYPRO Orange); intact-protein and tandem MS; format: binding; details: […] protein, covalent at C159
T1 construct: N-terminally truncated (first 17 residues removed), His6-tag (pProEX HTb), E. coli BL21-CodonPlus (DE3)-RIPL

[2] = biological target: T1, ARF1^WT (Δ17ARF1); assay: GDP/MANT-GTP nucleotide exchange, fluorescence; format: biochemical; details: exchange catalysed by […] human ARNO Sec7 ([…]-250)
[3] = biological target: T2, ARF1^WT (Δ17ARF1) (Homo sapiens, UniProt P84077, C159A); assay: protein thermal shift (SYPRO Orange); format: binding; details: no covalent adduct by mass spectrometry
T2 construct: N-terminally truncated (first 17 residues removed), His6-tag (pProEX HTb), E. coli BL21-CodonPlus (DE3)-RIPL
T2 sequence (P84077 18-181 C159A): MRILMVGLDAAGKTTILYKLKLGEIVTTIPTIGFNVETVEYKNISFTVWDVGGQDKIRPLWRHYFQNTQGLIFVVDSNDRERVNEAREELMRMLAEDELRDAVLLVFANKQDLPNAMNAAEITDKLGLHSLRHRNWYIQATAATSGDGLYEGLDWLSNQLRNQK
Description: protein thermal shift (SYPRO Orange) on ARF1^WT (Δ17ARF1) | PPIs with ARF1^C159A where C159 was mutated to alanine. No Tm shifts were observed

[4] = biological target: T3, SPOP^MATH (Homo sapiens, UniProt O43791); assay: fluorescence polarization, displacement of FITC-puc_SBC1 peptide; format: binding
T3 construct: MATH domain, residues 28-166; GST tag cut with PreScission protease; E. coli BL21-CodonPlus (DE3)-RIPL
T3 sequence (O43791 28-166): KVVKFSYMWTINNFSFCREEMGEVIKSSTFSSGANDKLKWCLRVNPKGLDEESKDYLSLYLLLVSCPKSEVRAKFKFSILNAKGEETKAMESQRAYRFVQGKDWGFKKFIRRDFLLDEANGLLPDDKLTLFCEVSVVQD

[5] = biological target: T4, RNF130 (Homo sapiens, UniProt Q86XS8); assay: ITC; format: binding; details: […] RNF130 in cell, […] compound injected; N = […]
T4 construct: residues 1-304, C-terminal His8-Flag tag kept, expressed in Expi-293F
T4 sequence (Q86XS8 28-304 limits assumed): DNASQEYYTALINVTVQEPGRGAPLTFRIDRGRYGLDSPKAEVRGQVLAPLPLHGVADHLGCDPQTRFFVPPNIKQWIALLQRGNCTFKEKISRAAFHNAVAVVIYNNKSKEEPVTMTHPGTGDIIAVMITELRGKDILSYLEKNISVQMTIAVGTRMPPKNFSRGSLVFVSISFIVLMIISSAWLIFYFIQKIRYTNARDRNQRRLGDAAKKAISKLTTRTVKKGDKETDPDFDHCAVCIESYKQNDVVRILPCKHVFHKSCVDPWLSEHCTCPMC

SMILES: COCCCOc1ccnc(C[S+]([O-])c2nc3ccccc3[nH]2)c1C (stereo not drawn) [rabeprazole]
Tm shift ([1]; no DTT; […] compound): PPIs could bind directly to wild-type ARF1 (ARF1^WT) and destabilize the protein
GDP/MANT-GTP nucleotide exchange, fluorescence [2]: rabeprazole suppressed the nucleotide exchange process in a concentration-dependent manner
Tm shift [3]: PPIs with ARF1^C159A where C159 was mutated to alanine. No Tm shifts were observed

IC50 [4]: 4.51 µM
SMILES: Cc1nnc(SCC2=C(C(=O)O)N3C(=O)C(NC(=O)c4ccc(COc5ccccc5Cl)o4)C3SC2)s1 (stereo not drawn) [221C7]

SMILES: CS(=O)(=O)c1nnc(CN2C3C=C(c4ccccc4)CC2CC3)s1 (stereo not drawn) [iRNF130-63]
Kd [5]: 1.23 µM

IC50 [4]: > 100 µM
SMILES: C=CC1=C(C(=O)O)N2C(=O)[C@@H](NC(=O)CCC3CCCC3)[C@H]2SC1 [222A5, (6R,7R)−7-(3-cyclopentylpropanamido)−8-oxo-3-vinyl-5-thia-1-azabicyclo[4.2.0]oct-2-ene-2-carboxylic acid]

SMILES: COc1ccnc(C[S+]([O-])c2nc3cc(OC(F)F)ccc3[nH]2)c1OC (stereo not drawn) [pantoprazole]
Tm shift ([1]; no DTT): PPIs could bind directly to wild-type ARF1 (ARF1^WT) and destabilize the protein

SMILES: COc1ccc2[nH]c([S+]([O-])Cc3ncc(C)c(OC)c3C)nc2c1 (stereo not drawn) [omeprazole]
Tm shift ([1]; no DTT): PPIs could bind directly to wild-type ARF1 (ARF1^WT) and destabilize the protein

SMILES: Cc1c(OCC(F)(F)F)ccnc1C[S+]([O-])c1nc2ccccc2[nH]1 (stereo not drawn) [lansoprazole]
Tm shift ([1]; no DTT): PPIs could bind directly to wild-type ARF1 (ARF1^WT) and destabilize the protein
